Laboratory results reported in patent US8268814B2, “Substituted sulfonamide compounds” (Gruenenthal GmbH, priority 2008, dated 2012).

target: T1, B1R receptor of the rat (rB1R) (Rattus norvegicus, UniProt P97583); test: Functional FLIPR Ca2+ assay on the bradykinin 1 receptor, rat (rB1R CHO K1 cells); assay type: cell-based; conditions: test substance 10 μM; CHO K1 cells transfected with rat B1R gene; agonist Des-Arg9-bradykinin at EC80; % inhibition compared with maximum achievable inhibition; read-out: B1R antagonism, rat [10 μM] % inhibition
T1 construct: expressed in transfected cells; host or cells: CHO K1 cells (Chinese hamster ovary), stably transfected
T1 sequence (P97583 1-337): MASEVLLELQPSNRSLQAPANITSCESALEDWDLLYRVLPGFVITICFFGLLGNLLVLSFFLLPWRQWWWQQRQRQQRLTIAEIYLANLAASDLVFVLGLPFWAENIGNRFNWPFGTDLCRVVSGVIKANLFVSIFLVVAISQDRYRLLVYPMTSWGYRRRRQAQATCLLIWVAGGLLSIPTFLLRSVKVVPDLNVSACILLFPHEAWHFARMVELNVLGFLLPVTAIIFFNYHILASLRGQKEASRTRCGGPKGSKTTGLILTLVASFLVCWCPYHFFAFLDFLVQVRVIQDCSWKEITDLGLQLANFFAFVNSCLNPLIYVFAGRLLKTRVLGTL
Method: (§1) The agonistic or antagonistic action of substances can be quantified on the bradykinin 1 receptor (B1R) of the human and rat species with ectopically expressing cell lines (CHO K1 cells) and with the aid of a Ca^2+-sensitive dyestuff (Fluo-4) in a fluorescent imaging plate reader (FLIPR). The figure in % activation is based on the Ca^2+ signal after addition of Lys-Des-Arg^9-bradykinin (0.5 nM) or Des-Arg^9-bradykinin (100 nM). Antagonists lead to a suppression of the Ca^2+ inflow after addition of the agonist. % inhibition compared with the maximum achievable inhibition is stated.
(§2) The agonistic or antagonistic action of substances can be determined on the bradykinin 1 receptor (B1R) of the human and rat species with the following assay. In accordance with this assay, the Ca^2+ inflow through the channel is quantified with the aid of a Ca^2+-sensitive dyestuff (type Fluo-4, Molecular Probes Europe BV, Leiden, Holland) in a fluorescent imaging plate reader (FLIPR, Molecular Devices, Sunnyvale, USA).
(§3) Chinese hamster ovary cells (CHO K1 cells) transfected stably with the human B1R gene (hB1R cells) or the B1R gene of the rat (rB1R cells) are used. For functional studies, these cells are plated out on black 96-well plates with a clear base (BD Biosciences, Heidelberg, Germany or Greiner, Frickenhausen, Germany) in a density of 20,000-35,000 cells/well. The cells are left overnight at 37° C. and 5% CO2 in culture medium (hB1R cells: Nutrient Mixture Ham's F12, Gibco Invitrogen GmbH, Karlsruhe, Germany or DMEM, Sigma-Aldrich, Taufkirchen, Germany; rB1R cells: D-MEM/F12, Gibco Invitrogen GmbH, Karlsruhe, Germany) with 10 vol. % FBS (foetal bovine serum, Gibco Invitrogen GmbH, Karlsruhe, Germany or PAN Biotech GmbH, Aidenbach, Germany). On the following day, the cells are loaded for 60 min at 37° C. with 2.13 μM Fluo-4 (Molecular Probes Europe BV, Leiden, Holland) in HBSS buffer (Hank's buffered saline solution, Gibco Invitrogen GmbH, Karlsruhe, Germany) with 2.5 mM probenecid (Sigma-Aldrich, Taufkirchen, Germany) and 10 mM HEPES (Sigma-Aldrich, Taufkirchen, Germany). The plates are then washed 2× with HBSS buffer, and HBSS buffer which additionally contains 0.1% BSA (bovine serum albumin; Sigma-Aldrich, Taufkirchen, Germany), 5.6 mM glucose and 0.05% gelatine (Merck KgaA, Darmstadt, Germany) is added. After a further incubation of 20 minutes at room temperature, the plates are inserted into the FLIPR for the Ca^2+ measurement.
(§4) Alternatively, the plates are washed with buffer A (15 mM HEPES, 80 mM NaCl, 5 mM KCl, 1.2 mM CaCl2, 0.7 mM MgSO4, 2 g/l glucose, 2.5 mM probenecid), buffer A is added and the plates are loaded with 2.5 μM Fluo-4 and 0.025% Pluronic F127 (Sigma-Aldrich, Taufkirchen, Germany). Thereafter, the cells are washed 2× with buffer A and incubated for 30 minutes with buffer A, which additionally contains 0.05% BSA and 0.05% gelatine, at room temperature and thereafter inserted into the FLIPR for the Ca^2+ measurement. The Ca^2+-dependent fluorescence is measured here before and after addition of substances (λex=488 nm, λem=540 nm). Quantification is by measurement of the highest fluorescence intensity (FC, fluorescence counts) over time.
(§5) The FLIPR protocol consists of 2 additions of substance. Test substances (10 μM) are first pipetted on to the cells and the Ca^2+ inflow is compared with the control (hB1R: Lys-Des-Arg^9-bradykinin >=50 nM; rB1R: Des-Arg^9-bradykinin 10 μM). This gives the figure in % activation based on the Ca^2+ signal after addition of Lys-Des-Arg^9-bradykinin (>=50 nM) or Des-Arg^9-bradykinin (10 μM). After incubation for 10-20 minutes, Lys-Des-Arg^9-bradykinin (hB1R) or Des-Arg^9-bradykinin (rB1R) in the concentration of the EC80 is applied and the inflow of Ca^2+ is likewise determined. Antagonists lead to a suppression of the Ca^2+ inflow. % inhibition compared with the maximum achievable inhibition is calculated. In order to determine the IC50 value, the substances are added in various concentrations. […]

inhibition at 10 µM [%] | Structure (SMILES)
57 | Cc1cc(S(=O)(=O)N2CCCCC2CCC(=O)N2CCc3sccc3C2c2cccc(C(F)(F)F)c2)c(C)cc1Cl (centres unmarked) [Example 34, 3-(1-(4-chloro-2,5-dimethylphenylsulfonyl)piperidin-2-yl)-1-(4-(3-(trifluoromethyl)phenyl)-6,7-dihydrothieno[3,2-c]pyridin-5(4H)-yl)propan-1-one]
90 | O=C(CC1CCCCN1S(=O)(=O)c1cccc(C(F)(F)F)c1)N1CCc2nc(Cc3ccncc3)sc2C1 (centres unmarked) [Example 40, 1-(2-(pyridin-4-ylmethyl)-6,7-dihydrothiazolo[5,4-c]pyridin-5(4H)-yl)-2-(1-(3-(trifluoromethyl)phenylsulfonyl)piperidin-2-yl)ethan-1-one]
103 | CN1CCN(Cc2cc3c(s2)CCN(C(=O)CCCC2CCCCN2S(=O)(=O)c2ccccc2C(F)(F)F)C3)CC1 (centres unmarked) [Example 87, 1-[2-[(4-Methyl-piperazin-1-yl)-methyl]-4,5,6,7-tetrahydro-thieno[3,2-c]pyridin-5-yl]-4-[1-[[2-(trifluoromethyl)-phenyl]sulfonyl]-piperidin-2-yl]-butan-1-one]
103 | Cc1cccc(Cl)c1S(=O)(=O)N1CCCCC1CCCC(=O)N1CCc2sc(CN3CCN(C)CC3)cc2C1 (centres unmarked) [Example 68, 4-[1-[(2-Chloro-6-methyl-phenyl)sulfonyl]-piperidin-2-yl]-1-[2-[(4-methyl-piperazin-1-yl)-methyl]-4,5,6,7-tetrahydro-thieno[3,2-c]pyridin-5-yl]-butan-1-one]
48 | O=C(CCCC1CCCCN1S(=O)(=O)c1ccc2ccccc2c1)N1CCc2[nH]cnc2C1c1ccccc1 (centres unmarked) [Example 76, 4-[1-(Naphthalen-2-ylsulfonyl)-piperidin-2-yl]-1-(4-phenyl-4,5,6,7-tetrahydro-1H-imidazo[4,5-c]pyridin-5-yl)-butan-1-one]
98 | O=C(COCC1CCCCN1S(=O)(=O)c1ccccc1C(F)(F)F)N1CCc2[nH]cnc2C1c1ccccc1 (centres unmarked) [Example 98, 1-(4-Phenyl-4,5,6,7-tetrahydro-1H-imidazo[4,5-c]pyridin-5-yl)-2-[[1-[[2-(trifluoromethyl)-phenyl]sulfonyl]-piperidin-2-yl]-methoxy]-ethanone]
98 | COc1cc(C)c(S(=O)(=O)N2CCCCC2COCCC(=O)N2CCc3sc(CN4CCN(C)CC4)cc3C2)c(C)c1 (centres unmarked) [Example 99, 3-[[1-[(4-Methoxy-2,6-dimethyl-phenyl)sulfonyl]-piperidin-2-yl]-methoxy]-1-[2-[(4-methyl-piperazin-1-yl)-methyl]-4,5,6,7-tetrahydro-thieno[3,2-c]pyridin-5-yl]-propan-1-one]
96 | CN1CCN(Cc2cc3c(s2)CCN(C(=O)COCC2CCCCN2S(=O)(=O)c2ccccc2C(F)(F)F)C3)CC1 (centres unmarked) [Example 97, 1-[2-[(4-Methyl-piperazin-1-yl)-methyl]-4,5,6,7-tetrahydro-thieno[3,2-c]pyridin-5-yl]-2-[[1-[[2-(trifluoromethyl)-phenyl]sulfonyl]-piperidin-2-yl]-methoxy]-ethanone]
101 | COc1cc(C)c(S(=O)(=O)N2CCCCC2CCCC(=O)N2CCc3[nH]cnc3C2c2ccccc2)c(C)c1 (centres unmarked) [Example 71, 4-[1-[(4-Methoxy-2,6-dimethyl-phenyl)sulfonyl]-piperidin-2-yl]-1-(4-phenyl-4,5,6,7-tetrahydro-1H-imidazo[4,5-c]pyridin-5-yl)-butan-1-one]
56 | Cc1cc(S(=O)(=O)N2CCCCC2CCC(=O)N2CCc3onc(C(=O)N4CCCCC4)c3C2)c(C)cc1Cl (centres unmarked) [Example 04, 3-(1-(4-chloro-2,5-dimethylphenylsulfonyl)piperidin-2-yl)-1-(3-(piperidine-1-carbonyl)-6,7-dihydroisoxazolo[4,5-c]pyridin-5(4H)-yl)propan-1-one]
97 | COc1cc(C)c(S(=O)(=O)N(CCOCC(=O)N2CCc3[nH]cnc3C2c2ccccc2)c2ccccc2)c(C)c1 (centres unmarked) [Example 84, 4-Methoxy-2,6-Dimethyl-N-[2-[2-oxo-2-(4-phenyl-4,5,6,7-tetrahydro-1H-imidazo[4,5-c]pyridin-5-yl)-ethoxy]-ethyl]-N-phenyl-benzenesulfonic acid amide]
93 | CN1CCN(Cc2cc3c(s2)CCN(C(=O)COCC2COc4ccccc4N2S(=O)(=O)c2ccccc2C(F)(F)F)C3)CC1 (centres unmarked) [Example 93, 1-[2-[(4-Methyl-piperazin-1-yl)-methyl]-4,5,6,7-tetrahydro-thieno[3,2-c]pyridin-5-yl]-2-[[4-[[2-(trifluoromethyl)-phenyl]sulfonyl]-3,4-dihydro-2H-[1,4]benzoxazin-3-yl]-methoxy]-ethanone]
64 | Cc1cccc(Cl)c1S(=O)(=O)N1CCCCC1CCCC(=O)N1CCc2[nH]cnc2C1c1ccccc1 (centres unmarked) [Example 69, 4-[1-[(2-Chloro-6-methyl-phenyl)sulfonyl]-piperidin-2-yl]-1-(4-phenyl-4,5,6,7-tetrahydro-1H-imidazo[4,5-c]pyridin-5-yl)-butan-1-one]
54 | COc1cc(C)c(S(=O)(=O)N(C)CCOCC(=O)N2CCc3[nH]cnc3C2c2ccccc2)c(C)c1C (centres unmarked) [Example 96, 4-Methoxy-N,2,3,6-tetramethyl-N-[2-[2-oxo-2-(4-phenyl-4,5,6,7-tetrahydro-1H-imidazo[4,5-c]pyridin-5-yl)-ethoxy]-ethyl]-benzenesulfonic acid amide]

target: T2, human B1R receptor (hB1R) (Homo sapiens, UniProt P46663); test: Functional FLIPR Ca2+ assay on the bradykinin 1 receptor, human (hB1R CHO K1 cells); assay type: cell-based; conditions: test substance 10 μM; CHO K1 cells transfected with human B1R gene; agonist Lys-Des-Arg9-bradykinin at EC80; % inhibition compared with maximum achievable inhibition; read-out: B1R antagonism, human (10 μM] % inhibition
T2 construct: expressed in transfected cells; host or cells: CHO K1 cells (Chinese hamster ovary), stably transfected
T2 sequence (P46663 1-353): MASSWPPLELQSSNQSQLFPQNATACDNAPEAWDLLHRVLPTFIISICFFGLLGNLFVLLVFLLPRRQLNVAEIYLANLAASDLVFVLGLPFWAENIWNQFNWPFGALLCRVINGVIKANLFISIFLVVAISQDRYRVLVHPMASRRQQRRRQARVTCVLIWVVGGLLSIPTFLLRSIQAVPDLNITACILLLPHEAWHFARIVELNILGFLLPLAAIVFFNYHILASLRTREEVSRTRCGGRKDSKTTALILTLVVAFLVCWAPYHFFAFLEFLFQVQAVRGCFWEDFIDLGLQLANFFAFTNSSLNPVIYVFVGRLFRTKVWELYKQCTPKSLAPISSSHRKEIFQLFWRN
Method: as §1, §2, §3, §4, §5

inhibition at 10 µM [%] | Structure (SMILES)
29 | Cc1cc(S(=O)(=O)N2CCCCC2CCC(=O)N2CCc3sccc3C2c2cccc(C(F)(F)F)c2)c(C)cc1Cl (centres unmarked) [Example 34, 3-(1-(4-chloro-2,5-dimethylphenylsulfonyl)piperidin-2-yl)-1-(4-(3-(trifluoromethyl)phenyl)-6,7-dihydrothieno[3,2-c]pyridin-5(4H)-yl)propan-1-one]
51 | O=C(CC1CCCCN1S(=O)(=O)c1cccc(C(F)(F)F)c1)N1CCc2nc(Cc3ccncc3)sc2C1 (centres unmarked) [Example 40, 1-(2-(pyridin-4-ylmethyl)-6,7-dihydrothiazolo[5,4-c]pyridin-5(4H)-yl)-2-(1-(3-(trifluoromethyl)phenylsulfonyl)piperidin-2-yl)ethan-1-one]
100 | COc1cc(C)c(S(=O)(=O)N2CCCC[C@H]2COCC(=O)N2CCc3sc(CN4CCCN(C)CC4)cc3C2)c(C)c1 [Example 64, 2-[[(2S)-1-[(4-methoxy-2,6-dimethyl-phenyl)sulfonyl]-piperidin-2-yl]-methoxy]-1-[2-[(4-methyl-[1,4]diazepan-1-yl)-methyl]-4,5,6,7-tetrahydro-thieno[3,2-c]pyridin-5-yl]-ethanone]
